From PMC9312958, “A Novel and Selective Dopamine Transporter Inhibitor, (S)-MK-26, Promotes Hippocampal Synaptic Plasticity and Restores Effort-Related Motivational Dysfunctions” (Biomolecules, 2022)

Legend:
[1] = test system: extracellular dopamine levels; test: In vivo microdialysis of extracellular dopamine (mPFC, NAc shell, NAc core); parameters: species or system Male Sprague Dawley rats; conditions: for DA Concentrations (as Determined from AUCs): mean ± SEM
Experimental: Male Sprague Dawley rats (250–350 g, Janvier, France) were used for all in vivo microdialysis experiments. Animals were kept in groups of four in standard cages (38 cm × 60 cm × 20 cm) and were acclimated to the facility for at least ten days before the beginning of the experiment under controlled environmental conditions (22 ± 2 °C, 60% humidity, 12 h light/dark cycle, with lights on from 08:00 to 20:00 h), with water and standard laboratory food provided ad libitum. To limit the stress due to manipulation during the experiments, each animal was daily handled for approximately 1–2 min throughout the habituation period and contact with the animal house maintenance personnel was limited to a single attendant. The bedding in the home cages was never changed, neither the day before nor the day of the experiment. All experiments were performed between 10:00–18:00 h. (S)-MK-26 (1 or 10 mg/kg) or vehicle (Kolliphor 30% in distilled water) were freshly prepared on the day of the experiment and i.p. administered at a volume of 1.5 mL/kg. The day before the microdialysis experiment, rats were positioned in a stereotaxic apparatus (Stoelting Co., Wood Dale, IL, USA) and under isoflurane anaesthesia (1.5–2%) (Harvard Apparatus, Holliston, MA, USA) implanted with a vertical microdialysis probe. A probe with dialysis membrane of approximately 2–3 mm of free surface (prepared as previously described) was directed unilaterally at the mPFC (PrL and IL; coordinates: 3.0 mm anterior and 0.7 mm lateral to bregma, and 5.5 mm ventral to dura), at the NAc shell (coordinates: 2.0 mm anterior and 0.8 mm lateral to bregma, and 8.0 mm ventral to dura) or NAc core (coordinates: 1.6 mm anterior and 1.6 mm lateral to bregma, and 7.6 mm ventral to dura), according to the rat brain atlas. On the day of the experiment, the animals were transferred to a sound-proof room and after 1 h habituation period, the microdialysis probe was connected with polyethylene tubing to a CMA/100 microinfusion pump (Harvard Apparatus, Holliston, MA, USA) and perfused with a Ringer’s solution (147 mM NaCl, 3 mM KCl and 1.2 mM CaCl2, pH 6.5) at a flow rate of 2.5 µL/min. After an equilibration period of a 2 h of the perfusion medium with the extracellular fluid, dialysate aliquots of 37.5 µL were collected (every 15 min during the experiment) in polyethylene tubes kept on ice for the determination of dopamine concentrations. After collecting at least four dialysate aliquots, rats were i.p. injected with vehicle or (S)-MK-26 (1 or 10 mg/kg), and ten more dialysate aliquots were collected every 15 min. Dopamine concentrations in the dialysates from the NAc (core and shell) and mPFC were measured by high pressure liquid chromatography (HPLC) on a 7.5 cm × 3.0 mm i.d., Supelcosil C18, 3 µm particle size column, (Supelco, Supelchem, Milan, Italy) coupled to electrochemical detection (Coulochem II, ESA, Cambridge, MA, USA) using a 4011 dual cell, as previously described. Detection was performed in reduction mode, with potentials set to +350 and −180 mV. The mobile phase was 0.06 M citrate/acetate pH 4.2, containing methanol 20% v/v, 0.1 mM EDTA, 1 µM triethylamine, and 0.03 mM sodium dodecyl sulphate at a flow rate of 0.6 mL/min. The sensitivity of the assay was 0.125 pg. At the end of the experiments, the rats were sacrificed by decapitation; the brains were immediately removed from the skull and stored in 4% aqueous formaldehyde for 12–15 days. After this period, 40 µm coronal brain sections were prepared with a freezing microtome, stained with Neutral Red and inspected on a phase contrast microscope. The position of the tip of the microdialysis probe in the NAc (core and shell) and mPFC were then corroborated by following the tract of the microdialysis probe through a series of brain sections. […]

hSERT = biological target: T1, hSERT (Homo sapiens, UniProt P31645); test: hSERT radioligand binding assay (CHO cells, [3H]imipramine)
T1 construct: expressed in transfected cells
T1 sequence (P31645 whole entry): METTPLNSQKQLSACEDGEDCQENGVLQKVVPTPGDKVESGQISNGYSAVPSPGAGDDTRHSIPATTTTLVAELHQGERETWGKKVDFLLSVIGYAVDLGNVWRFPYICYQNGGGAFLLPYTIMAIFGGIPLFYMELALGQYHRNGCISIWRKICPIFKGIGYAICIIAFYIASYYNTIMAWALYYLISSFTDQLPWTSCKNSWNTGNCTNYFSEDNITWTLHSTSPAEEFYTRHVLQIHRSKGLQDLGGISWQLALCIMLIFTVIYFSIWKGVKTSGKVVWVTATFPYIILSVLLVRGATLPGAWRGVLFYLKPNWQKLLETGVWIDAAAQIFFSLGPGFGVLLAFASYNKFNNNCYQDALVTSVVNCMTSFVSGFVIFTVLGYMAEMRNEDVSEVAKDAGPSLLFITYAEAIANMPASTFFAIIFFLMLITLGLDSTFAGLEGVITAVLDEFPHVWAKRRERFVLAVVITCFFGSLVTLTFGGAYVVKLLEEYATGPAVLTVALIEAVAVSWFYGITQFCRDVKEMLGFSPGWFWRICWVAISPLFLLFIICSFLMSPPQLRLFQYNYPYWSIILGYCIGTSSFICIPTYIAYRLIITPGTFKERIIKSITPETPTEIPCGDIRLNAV
Experimental: (§1) Binding affinity to the hDAT, hNET and hSERT expressed in CHO cells was evaluated in in vitro radioligand binding assays. Binding assays were conducted according to the standard and validated protocols under conditions defined by the contractor (Eurofins Cerep SA, Celle-’Evescault, France; study number 100054410). Antagonist radioligand assays were conducted for the human norepinephrine, the human dopamine, and the serotonin transporters (using CHO cells), using [^3H]nisoxetine (1 nM), [^3H]BTCP (4 nM), and [^3H]imipramine (2 nM) as ligands and desipramine (1 µM), BTCP (10 µM), and imipramine (10 µM) as non-specific agents, respectively (with scintillation counting as detection method).

hDAT = biological target: T2, hDAT (Homo sapiens, UniProt Q01959); test: hDAT radioligand binding assay (CHO cells, [3H]BTCP)
T2 construct: expressed in transfected cells
T2 sequence (Q01959 whole entry): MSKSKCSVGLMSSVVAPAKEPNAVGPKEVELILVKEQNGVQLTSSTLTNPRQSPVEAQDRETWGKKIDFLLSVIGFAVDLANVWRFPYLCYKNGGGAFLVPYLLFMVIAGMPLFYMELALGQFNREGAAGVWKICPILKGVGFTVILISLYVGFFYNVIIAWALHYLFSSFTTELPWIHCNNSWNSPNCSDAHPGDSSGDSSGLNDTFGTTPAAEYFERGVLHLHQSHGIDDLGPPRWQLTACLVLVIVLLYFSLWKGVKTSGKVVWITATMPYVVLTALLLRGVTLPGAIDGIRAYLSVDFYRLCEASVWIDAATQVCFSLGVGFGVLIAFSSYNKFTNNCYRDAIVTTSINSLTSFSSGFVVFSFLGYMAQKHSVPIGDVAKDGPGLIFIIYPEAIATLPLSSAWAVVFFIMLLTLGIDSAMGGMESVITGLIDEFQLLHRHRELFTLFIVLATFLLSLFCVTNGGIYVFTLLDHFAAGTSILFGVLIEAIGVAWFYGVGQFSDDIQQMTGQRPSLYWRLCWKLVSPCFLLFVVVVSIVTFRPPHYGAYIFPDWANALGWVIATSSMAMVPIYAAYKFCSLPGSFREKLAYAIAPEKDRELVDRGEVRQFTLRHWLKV
Experimental: as §1

How did the “DA Concentrations (as Determined from AUCs)” value (shortened to “DA Concentrations”) ([1]; NAc core dialysate, 1 mg/kg i.p.) turn out when `[O-][S@@+](Cc1cncs1)C(c1cccc(Cl)c1)c1cccc(Cl)c1` [(S)-MK-26, (S)-5-(((B(3-chlorophenyl)methyl)sulphinyl)methyl)thiazole] was run?
The value was 3056 ± 644.

What about the “DA Concentrations” value ([1]; NAc core dialysate, 10 mg/kg i.p.) of the same molecule?
The value was 7861 ± 1697.

And the “peak increase of extracellular dopamine concentration above basal values” ([1]; NAc core, 1 mg/kg i.p.)?
Its value is “about 25%”.

And the “peak increase of extracellular dopamine concentration” value ([1]; NAc core, 10 mg/kg i.p., peak 60–75 min after treatment)?
Its value is “about 65%”.

What about the “DA Concentrations” value ([1]; NAc shell dialysate, 1 mg/kg i.p.) of the same molecule?
Its value is 2972 ± 1094.

What about the “DA Concentrations” value ([1]; NAc shell dialysate, 10 mg/kg i.p.) of the same molecule?
The value was 7730 ± 1389.

And the “peak increase of extracellular dopamine concentration” value ([1]; NAc shell, 10 mg/kg i.p., peak 30–45 min after treatment)?
The value was “about 70%”.

What about the “DA Concentrations” value ([1]; mPFC dialysate, 1 mg/kg i.p.) of the same molecule?
Its value is 3159 ± 223.

And the “DA Concentrations” value ([1]; mPFC dialysate, 10 mg/kg i.p.)?
The value was 4983 ± 547.

What about the “peak increase of extracellular dopamine concentration” value ([1]; mPFC, 1 mg/kg i.p., peak at 30 min after treatment) of the same molecule?
Its value is “about 40%”.

And the “peak increase of extracellular dopamine concentration” value ([1]; mPFC, 10 mg/kg i.p., peak at 45 min after treatment)?
The value was “about 75%”.

What about the “binding to SERT” value (hSERT) of the same molecule?
The value was “trifling bindings”.

What about the Ki (hDAT) of the same molecule?
The Ki was 26 nM.
